These results are taken from US11787796B2, “Plasma Kallikrein inhibitors and uses thereof” (Takeda Pharmaceutical Company Limited, priority 2019, dated 2023).

pEC50: −log10 of the molar value.

Sequence of human activated kallikrein enzyme (P03952 391-638): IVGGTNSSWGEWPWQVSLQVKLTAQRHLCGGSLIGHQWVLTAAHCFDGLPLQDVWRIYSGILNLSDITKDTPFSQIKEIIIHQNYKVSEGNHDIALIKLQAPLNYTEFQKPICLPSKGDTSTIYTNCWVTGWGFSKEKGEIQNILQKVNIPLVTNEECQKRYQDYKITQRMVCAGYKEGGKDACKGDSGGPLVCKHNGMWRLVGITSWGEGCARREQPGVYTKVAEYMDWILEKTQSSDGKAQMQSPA
Sequence of human activated kallikrein enzyme (P03952 20-390 partner): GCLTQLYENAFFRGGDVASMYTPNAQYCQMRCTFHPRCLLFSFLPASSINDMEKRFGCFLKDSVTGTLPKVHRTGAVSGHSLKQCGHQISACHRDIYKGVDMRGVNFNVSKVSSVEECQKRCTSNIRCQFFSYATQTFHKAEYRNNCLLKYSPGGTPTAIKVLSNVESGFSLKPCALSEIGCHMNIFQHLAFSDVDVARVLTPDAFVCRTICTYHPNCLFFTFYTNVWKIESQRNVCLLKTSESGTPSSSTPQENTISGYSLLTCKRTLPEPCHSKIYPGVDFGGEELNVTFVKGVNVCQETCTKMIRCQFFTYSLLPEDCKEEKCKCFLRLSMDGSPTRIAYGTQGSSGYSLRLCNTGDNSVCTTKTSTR

This assay concerns the target human activated kallikrein enzyme (Homo sapiens (Human), UniProt P03952). The experiment in a line: Plasma kallikrein inhibition assay with fluorogenic peptide substrate, 500 pM activated kallikrein format. In kind it is biochemical. As to conditions: 500 pM activated kallikrein; 300 uM Pro-Phe-Arg-7-amido-4-methylcoumarin substrate; 30 min preincubation, 10 min reaction at RT; read-out: Primary Dose Response Assay: Average EC50. The method in brief: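 Pro-Phe-Arg-7-amido-4-methylcoumarin substrate (300 uM) started reactions after a 30 min RT enzyme–inhibitor preincubation. This format used 500 pM activated human kallikrein in Tris pH 7.5 buffer with EDTA, NaCl, PEG-400 and Triton X-100. AMC fluorescence (380/460 nm) was measured after 10 min at RT.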
Take `O=C(NCc1cc2occc2cn1)c1cn(Cc2cn3cc(C4CC4)ccc3n2)nn1` [Example I-140, 1-((6-cyclopropylimidazo[1,2-a]pyridin-2-yl)methyl)-N-(furo[3,2-c]pyridin-6-ylmethyl)-1H-1,2,3-triazole-4-carboxamide]: the pEC50 was 5.70 to 7.00.

On to `COC(=O)c1ccc(-c2ccc(OC)c(F)c2CNC(=O)c2cn(Cc3cn4cc(C5CC5)ccc4n3)nn2)cc1` [Example I-87, Methyl 2′-((1-((6-cyclopropylimidazo[1,2-a]pyridin-2-yl)methyl)-1H-1,2,3-triazole-4-carboxamido)methyl)-3′-fluoro-4′-methoxy-[1,1′-biphenyl]-4-carboxylate], for which the pEC50 is 7.00 to 8.00.

`COc1ccc(-n2ccc(C(F)(F)F)n2)c(CNC(=O)c2cn(Cc3cn4cc(C5CC5)ccc4n3)nn2)c1F` [Example I-62, 1-((6-cyclopropylimidazo[1,2-a]pyridin-2-yl)methyl)-N-(2-fluoro-3-methoxy-6-(3-(trifluoromethyl)-1H-pyrazol-1-yl)benzyl)-1H-1,2,3-triazole-4-carboxamide]: the pEC50 is 8.00 to 9.00.

As for `O=C(NCc1cc(Cl)ccc1-n1cc(Cl)nn1)c1cn(Cc2cn3cc(C4CC4)ccc3n2)nn1` [Example I-3, N-(5-chloro-2-(4-chloro-1H-1,2,3-triazol-1-yl)benzyl)-1-((6-cyclopropylimidazo[1,2-a]pyridin-2-yl)methyl)-1H-1,2,3-triazole-4-carboxamide], the pEC50 is 7.00 to 8.00.

For the compound `N=C(N)c1ccc(CNS(=O)(=O)c2cnn(Cc3cn4cc(C5CC5)ccc4n3)c2)cc1` [Example I-32, 4-(((1-((6-cyclopropylimidazo[1,2-a]pyridin-2-yl)methyl)-1H-pyrazole)-4-sulfonamido)methyl)benzimidamide], the pEC50 is 8.00 to 9.00.

For the compound `O=C(NCc1cc(Cl)ccc1-n1cnnn1)c1cnn(Cc2cn3cc(C4CC4)ccc3n2)c1` [Example I-125, N-(5-chloro-2-(1H-tetrazol-1-yl)benzyl)-1-((6-cyclopropylimidazo[1,2-a]pyridin-2-yl)methyl)-1H-pyrazole-4-carboxamide], the pEC50 was 8.00 to 9.00.
